Assay: In vivo elution of minocycline from the implant device
Details: within 72 hours
Protocol: The final implant device prepared above was pressed onto a silicone-release liner under normal ambient conditions (30-40% relative humidity). The implant device was vacuum sealed in foil pouches (with argon backflow) in a dry room (<20% relative humidity). The implant device was sterilized using 22-28 kGy of gamma radiation at a slow dose rate of 4-6 kGy/hour. Gamma irradiation was performed on dry ice, but can also be performed at ambient temperature. The bioactive agent content of the implant device was within +/−10% of the target dose. Greater than 80% minocycline eluted in vivo within 72 hours.

- minocycline eluted in vivo: Greater than 80%
SMILES: CN(C)c1ccc(O)c2c1C[C@H]1C[C@H]3[C@H](N(C)C)C(O)=C(C(N)=O)C(=O)[C@@]3(O)C(O)=C1C2=O [Minocycline]

From patent US9598532B2, “Terpolymers as pressure-sensitive adhesives” (Surmodics, Inc., priority 2010, dated 2017)
